Assays:
[1] = biological target: T1, hTLR7 (Homo sapiens, UniProt Q9NYK1); assay: NF-κB SEAP reporter gene assay in HEK293 cells stably transfected with hTLR7; assay type: cell-based; details: for EC50: HEK 293, 24 h stimulation, NF-κB SEAP, read-out: TLR7 ED50; for higher TLR7 potency in relation to oxoadenine 3b: HEK293-hTLR7, FIG. 4A
T1 construct: host or cells: HEK293 cells stably transfected with hTLR7 and NF-κB SEAP reporter
T1 sequence (Q9NYK1 27-1049): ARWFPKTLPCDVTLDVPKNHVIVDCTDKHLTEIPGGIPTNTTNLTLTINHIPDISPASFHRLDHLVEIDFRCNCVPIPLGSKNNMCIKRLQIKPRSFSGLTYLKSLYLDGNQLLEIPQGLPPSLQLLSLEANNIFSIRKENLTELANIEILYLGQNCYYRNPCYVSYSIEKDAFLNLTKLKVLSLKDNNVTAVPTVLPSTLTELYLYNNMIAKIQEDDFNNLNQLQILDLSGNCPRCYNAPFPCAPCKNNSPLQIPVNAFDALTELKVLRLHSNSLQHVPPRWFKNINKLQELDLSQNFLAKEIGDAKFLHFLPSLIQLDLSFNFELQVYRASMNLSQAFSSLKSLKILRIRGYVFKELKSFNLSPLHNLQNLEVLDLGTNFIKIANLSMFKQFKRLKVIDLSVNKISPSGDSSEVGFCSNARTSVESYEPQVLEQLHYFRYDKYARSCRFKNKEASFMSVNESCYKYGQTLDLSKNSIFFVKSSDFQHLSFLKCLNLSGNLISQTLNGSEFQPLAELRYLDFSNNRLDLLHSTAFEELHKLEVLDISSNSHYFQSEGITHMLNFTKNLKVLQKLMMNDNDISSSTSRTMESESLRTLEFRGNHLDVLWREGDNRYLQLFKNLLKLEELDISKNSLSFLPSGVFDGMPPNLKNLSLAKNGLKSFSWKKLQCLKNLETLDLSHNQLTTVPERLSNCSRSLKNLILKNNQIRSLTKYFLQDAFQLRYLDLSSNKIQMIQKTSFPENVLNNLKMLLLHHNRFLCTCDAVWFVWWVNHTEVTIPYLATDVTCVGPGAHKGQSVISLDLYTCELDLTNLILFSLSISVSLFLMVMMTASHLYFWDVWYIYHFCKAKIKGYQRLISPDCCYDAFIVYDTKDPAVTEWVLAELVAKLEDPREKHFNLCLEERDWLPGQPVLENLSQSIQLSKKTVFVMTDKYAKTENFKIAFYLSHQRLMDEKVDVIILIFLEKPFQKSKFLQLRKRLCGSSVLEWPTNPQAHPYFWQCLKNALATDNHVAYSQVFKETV
Procedure: The human (h) TLR7/8 activity of oxoadenines 3a-g was assessed by a reporter gene assay using HEK293 cells stably transfected with either hTLR7 or hTLR8, and with the NF-κB SEAP (secreted embryonic alkaline phosphatase) reporter.
HEK293 cells expressing human TLR7 or TLR8, and NF-κB responsive SEAP reporter gene, were obtained from InvivoGen (San Diego, Calif.). These cells were maintained in culture media of Dulbecco's Modified Eagle Medium (DMEM)
(Invitrogen, Grand Island, N.Y.), 10% Fetal Bovine Serum (FBS) (Sigma, St. Louis, Mo.) and selection antibiotics (Invitrogen and InvivoGen). The stably transfected HEK293 cells were plated in 96-well flat bottom culture plates at 1^E5/well and stimulated for 24 h with a dose range of aqueous formulations of compounds starting at 200 μM, serially diluted to 0.012 μM with 2-fold dilutions (unless formulation conditions warranted lower starting concentrations). Culture supernatants were harvested and assayed for NFKB activation using the colorimetric SEAP detection kit QU ANTI-BLUE (a trademark of InvivoGen).
The assay measured NFKB mediated SEAP production following TLR7 or TLR8 specific activation.
It should be noted that the HEK assay is not optimal for evaluating TLR7 since TLR7 signals via both the NFKB (leading to induction of inflammatory cytokines) and IRF7 pathways (leading to IFN induction) and the HEK system only measures the NFKB side of TLR7 signaling. Oxoadenine 3a was not active on hTLR7 or hTLR8 but the other oxoadenines 3b-g were all active.

[2] = test system: hPBMCs; assay: TNFα induction in hPBMCs; assay type: cell-based, human; details: 24 hours stimulation
Procedure: (§1) Compounds were dissolved in 2% glycerol in water to working concentrations starting at 10 μM, serially diluted to 0.00013 μM with 5-fold dilutions. This compound preparation was added to 96-well flat bottom plates at a volume of 10 μl.
(§2) An additional 10 μl of media was added to these wells, or another compound preparation if co-stimulation was intended.
Blood samples from human donors were collected into heparinized 60 cc syringes, and divided into 20 ml aliquots in 50 ml conical culture tubes. The whole blood aliquots were then diluted with 15 ml of PBS, and then underlay with 15 ml HISTOPAQUE™. The samples were centrifuged at 800 g for 30 min with no brake and the buffy coat interface carefully removed. The collected cells were centrifuged at 1500 rpm for 5 minutes and the pellet resuspended in 10 ml of PBS. […] After the final wash, the combined cells were brought up in 20 ml complete media (RPMI 1640 supplemented with 10% v/v heat-inactivated Fetal Bovine Serum (FBS), 100 U/ml penicillin G, 100 μg/ml streptomycin, 10 mM L-glutamine), counted using a Countess automated cell counter (Invitrogen, Life Technologies) and diluted to give a final concentration of 2.8×10^6/ml. […]
The induction of cytokines in human peripheral blood mononuclear cells (hPBMCs) after 24 hours stimulation with oxoadenines 3e-g was next evaluated using cytokine ELISA and intracellular cytokine staining (ICS). […]

[3] = test system: hPBMCs; assay: IFNα induction in hPBMCs; assay type: cell-based; details: human PBMCs, FIG. 6
Procedure: as §1, §2
Blood samples from human donors were collected into heparinized 60 cc syringes, and divided into 20 ml aliquots in 50 ml conical culture tubes. The whole blood aliquots were then diluted with 15 ml of PBS, and then underlay with 15 ml HISTOPAQUE™. The samples were centrifuged at 800 g for 30 min with no brake and the buffy coat interface carefully removed. The collected cells were centrifuged at 1500 rpm for 5 minutes and the pellet resuspended in 10 ml of PBS. The cells were pooled and further washed twice in PBS to remove all HISTOPAQUE™ from the samples. After the final wash, the combined cells were brought up in 20 ml complete media (RPMI 1640 supplemented with 10% v/v heat-inactivated Fetal Bovine Serum (FBS), 100 U/ml penicillin G, 100 μg/ml streptomycin, 10 mM L-glutamine), counted using a Countess automated cell counter (Invitrogen, Life Technologies) and diluted to give a final concentration of 2.8×10^6/ml. […]
The induction of IFNα from hPBMCs upon stimulation with oxoadenines 3a-g was also evaluated. […]

[4] = test system: pDC and mDC in hPBMCs; assay: Activation induced apoptosis by Annexin-V staining in pDC and mDC of stimulated hPBMCs; assay type: cell-based, human; details: hPBMCs stimulated with various doses
Excerpt: This observed cell type specific apoptosis correlated with the dose-dependent IFNα and TNFα induction curves.

[5] = test system: human PBMCs; assay: IL-12p70 induction in human PBMCs in combination with CRX601 (TLR4 agonist); assay type: cell-based; parameters: key to IL-12p70 w/601: * through ****; lowest to highest cytokine induction level; * through ****; lowest to highest cytokine induction level; * through ****; lowest to highest cytokine induction level; * through ****; lowest to highest cytokine induction level; details: for IL-12p70 w/601: PBMC/Monocytes, in combination with CRX601; for synergy with CRX601 for IL12-p70: human PBMCs, FIGS. 8A and 8B
Procedure: as §2
(§3) Blood samples from human donors were collected into heparinized 60 cc syringes, and divided into 20 ml aliquots in 50 ml conical culture tubes. The whole blood aliquots were then diluted with 15 ml of PBS, and then underlay with 15 ml HISTOPAQUE™. The samples were centrifuged at 800 g for 30 min with no brake and the buffy coat interface carefully removed. The collected cells were centrifuged at 1500 rpm for 5 minutes and the pellet resuspended in 10 ml of PBS. The cells were pooled and further washed twice in PBS to remove all HISTOPAQUE™ from the samples. After the final wash, the combined cells were brought up in 20 ml complete media (RPMI 1640 supplemented with 10% v/v heat-inactivated Fetal Bovine Serum (FBS), 100 U/ml penicillin G, 100 μg/ml streptomycin, 10 mM L-glutamine), counted using a Countess automated cell counter (Invitrogen, Life Technologies) and diluted to give a final concentration of 2.8×10^6/ml. This cell suspension was added to the culture plate containing the compound preparations (see above), at a volume of 180 μl, resulting in a total well volume of 200 µl.
After 24 hr incubation (37° C., 95% air, 5% CO2), the supernatants were carefully removed and assayed for cytokine/chemokine induction using multiplex kits (FLUOROKINE™ multiplex kits from R&D Systems [bio-techne], Minneapolis, Minn.) and human IFNa VERIKINE™ ELISA kit (Pestka Biomedical Laboratories, Inc., Piscataway, N.J.).
As previously observed with other oxoadenines (see WO2010/018134), synergy with AGP CRX601 for IL12-p70 was relatively low compared to imidazoquinoline compound CRX642 (see WO2010/048520; PCT/US2009/061867; U.S. Pat. No. 8,624,029) in combination with CRX601.

[6] = test system: PBMC/Monocytes; assay: Inflammatory cytokine induction in PBMC/Monocytes; assay type: cell-based, human; parameters: key: * through ****; lowest to highest cytokine induction level; * through ****; lowest to highest cytokine induction level; * through ****; lowest to highest cytokine induction level; * through ****; lowest to highest cytokine induction level
Procedure: as §1
as §3, with “µl. […]” for “µl.”

CCCCOc1nc(N)c2[nH]c(=O)n(CCCCCC3CCNCC3)c2n1 [Compound 3f]
EC50 [1]: 26 nM
higher TLR7 potency in relation to oxoadenine 3b [1]: 50 fold
TNFα induction in hPBMCs (in words) [2]: high potency
dose at which IFN-alpha is induced [3]: ~1 nM
Annexin-V staining in mDC ([4]; mDC): not in mDC
Annexin-V staining in pDC ([4]; pDC): dose dependent increase in Annexin-V staining
IL-12p70 w/601 [5]: **
synergy with CRX601 for IL12-p70 [5]: demonstrated synergy with CRX601 throughout a wide dose range
Infl. Cytok. [6]: ***

CCC[C@H](C)Oc1nc(N)c2nc(O)n(CCCCCC3CCNCC3)c2n1 [Compound 3x]
EC50 [1]: 6 nM
higher TLR7 potency in relation to oxoadenine 3b [1]: 100 fold
TNFα induction in hPBMCs (in words) [2]: high potency
dose at which IFN-alpha is induced [3]: ~1 nM
IL-12p70 w/601 [5]: **
synergy with CRX601 for IL12-p70 [5]: demonstrated synergy with CRX601 throughout a wide dose range

Reference: US10919894B2, “Adenine derivatives which are useful in the treatment of allergic diseases or other inflammatory conditions” (GlaxoSmithKline Biologicals SA, priority 2014, dated 2021)
